The source of these data is patent US20230158057A1, “COMPOSITIONS AND METHODS FOR THE TREATMENT OF PAIN” (Duke University, priority 2020, published 2023).

Series [1] has as its system naïve mice. In words: Naloxone reversal of antinociception. The class given is in vivo, mouse. Conditions: naloxone 10 mg/kg i.p.; morphine 2 nmol i.t., DMXAA or ADU-S100 35 nmol i.t. As to the method: Following naloxone delivery, mice were tested within 15 minutes. For the experiments testing whether mice developed tolerance to the effects of STING agonists, vehicle or DMXAA (35 nmol) were administered via i.t. injection. Naïve mice received five single injections at D0, D3, D6, D9, and D12, with testing each day 4 h after injection. SNI mice received injections on two consecutive days beginning on D7 (D7 and D8) and every 48 h afterwards following the conclusion of sensory testing (D10, D12, D14, D16, and D18). Spinal cords (L4-L5) were collected for analysis of glial cell activation at D21 following SNI.

Series [2] concerns IFN-β. In words: IFN-β ELISA on BMDM culture medium. The class given is cell-based, mouse. Conditions: 24 h after incubation; IFN-β induction much greater. The protocol: (§1) ELISA. Mouse high-sensitivity IFN-α ELISA kit (42115-1) and IFN-β ELISA kit (42410-1) were purchased from PBL Assay Science. Mouse CTX-I ELISA kit (AC-06F1) and mouse PINP ELISA kit (AC-33F1) were purchased from Immunodiagnostic Systems. ELISA was performed using culture medium, serum, and bone marrow lysates. Serum was obtained from whole blood that was collected from a submandibular vein via facial vein puncture, coagulated for 30 minutes at room temperature, followed by centrifugation (2,000 ×g for 10 min, 4° C.) and collection of the supernatant (serum). Bone marrow was homogenized in a lysis buffer containing protease inhibitors at 4° C. for 30 minutes. ELISA was conducted in accordance with the manufacturer's instructions. A standard curve was performed for each experiment.
In vitro induction of osteoclastogenesis and TRAP staining. For in vitro drug treatment, the RAW 264.7 cells were incubated with 35 ng/ml RANKL for six days. Isolated bone marrow cells were cultured overnight in α-MEM media containing 10% fetal bovine serum and 1% antibiotic-antimycotic solution. The suspended cells were collected and incubated with 20 ng/ml MCSF for 3 days to obtain bone marrow-derived macrophage (BMDM). The attached cells were further activated by 35 ng/ml RANKL and 20 ng/ml MCSF. Drug treatment was performed in tandem with RANKL. Culture medium and co-cultured reagents were changed every 3 days. […]

Series [3] has as its system mice with intrafemoral Lewis lung carcinoma (LLC). In words: Open field test in LLC bone cancer model. The note with it: d14 after tumor inoculation. Type of series: in vivo, mouse. The protocol:
Behavior tests. All the behavioral tests were conducted in a blinded manner and performed during between the hours of 9:00-16:00. Animals were habituated in a light and humidity controlled testing environment for at least 2 days prior to baseline testing. For Von Frey testing, mice were confined to individual 5×5 cm boxes placed on an elevated wire grid. A blinded experimenter stimulated their hindpaws using a series of von Frey filaments with logarithmically increasing stiffness (0.02-2.56 g, Stoelting). Each filament was applied perpendicularly to the central plantar surface. The 50% paw withdrawal threshold was determined using Dixon's up-down method. In addition, we also measured paw withdrawal frequency to repeated stimulation (10 times, with ˜1-2 minutes between each stimulation) using a subthreshold 0.16 g von Frey filament, which is a more sensitive method to detect mechanical allodynia. […] To measure locomotor function, we performed open field testing in which mice were placed in the center of a 45×45 cm chamber and locomotor activity was recorded by an overhead webcam connected to a laptop computer, and animals' movements were automatically tracked for 30 minutes using ANY-Maze. The total distance traveled and mean speed during the 30-minute period were analyzed.

In series [4] the test system is naïve mice. Nature of the series: Conditioned place preference (CPP) assay in naïve mice. The note with it: i.t., morphine 2 nmol, DMXAA or ADU-S100 35 nmol. The protocol: (§2) All mice underwent 3 d of preconditioning habituation in a temperature- and humidity-controlled room under low-light conditions between 08:00-16:00 in a two compartment CPP chamber (Med Associates Inc.). The two compartments differed by both visual and tactile cues. On the 4th day, animal behavior was video-recorded using a webcam connected to a laptop computer, and animal movement was automatically tracked for 15 minutes using the ANY-Maze software (Stoelting). […] On the conditioning day(s) (day 5 for single trial; day 5-7 for repeated trials), two pairing sessions were performed, with vehicle pairing in the AM session and drug treatment (e.g., vehicle or drug) in the PM session, separated by 4 h. In the AM session, mice always received vehicle (10 μl saline, delivered via i.t. injection under isoflurane anesthesia) and were immediately placed in their preferred CPP chamber for 2 h. […] 24 h after the completion of the pairing experiments, mice were placed in the CPP test box with access to both chambers and behavior was recorded for 15 minutes and analyzed using the ANY-Maze software for chamber preference. CPP score was calculated as the inverse of the time spent in the preferred chamber according to: [post-preference (sec)—pre-preference (sec)]. Vehicle served as a negative control for these experiments, while morphine (three trials/naïve mice) or clonidine (single trial/ongoing pain) served as positive controls.

Series [5] has as its system mice with CIPN or BCP. In words: Conditioned place preference (CPP) assay in chronic pain (CIPN and BCP) models. The class given is in vivo, mouse. Conditions: for conditioned place preference (ongoing pain): mice with CIPN or BCP, i.t.; for conditioned place preference, single pairing: mice with neuropathic pain (CIPN), i.t. 35 nmol. The protocol: as §2
For series [6], the system named is bone marrow-derived macrophages (BMDM). Nature of the series: In vitro osteoclastogenesis from bone marrow-derived macrophages (BMDM), TRAP staining. The class given is cell-based, mouse. Conditions: 30 μM, WT vs STING^gt/gt or Ifnar1^−/−. The protocol:
In vitro induction of osteoclastogenesis and TRAP staining. For in vitro drug treatment, the RAW 264.7 cells were incubated with 35 ng/ml RANKL for six days. Isolated bone marrow cells were cultured overnight in α-MEM media containing 10% fetal bovine serum and 1% antibiotic-antimycotic solution. The suspended cells were collected and incubated with 20 ng/ml MCSF for 3 days to obtain bone marrow-derived macrophage (BMDM). The attached cells were further activated by 35 ng/ml RANKL and 20 ng/ml MCSF. Drug treatment was performed in tandem with RANKL. Culture medium and co-cultured reagents were changed every 3 days. After 6 or 7 days of incubation, the cells were fixed by 4% PFA and stained with warm TRAP staining solution (TRAP kit, Sigma-Aldrich, SLBW4002) for 10-30 min at 37° C.

Series [7] deals with IFN-β. In words: IFN-β ELISA in serum and bone marrow lysate after i.p. STING agonist, LLC model. The class given is in vivo, mouse. Conditions: for serum IFN-β levels: 4 h after i.p. 20 mg/kg; for IFN-β in bone marrow (BM) lysate: 4 h after i.p., d3. As to the method: as §1
A general note: An ELISA detects its analyte on a solid surface through an enzyme-linked reagent.

Series [8] relates to IFN-α. Nature of the series: IFN-α ELISA in serum and bone marrow lysate after i.p. STING agonist, LLC model. Type of series: in vivo, mouse. The note with it: for increase of serum levels of IFN-α: 4 h after a single i.p. injection 20 mg/kg on d3, vs vehicle; for IFN-α in bone marrow (BM) lysate: 4 h after i.p., d3. The protocol: as §1

Consider `Nc1ncnc2c1ncn2[C@@H]1O[C@@H]2COP(=O)([S-])O[C@@H]3[C@H](O)[C@@H](COP([O-])(=S)O[C@H]2[C@H]1O)O[C@H]3n1cnc2c(N)ncnc21.[Na+].[Na+]` (stereo partly drawn) [ADU-S100, (2′-5′)-[P(R)]-5′-O-[(R)-hydroxymercaptophosphinyl]-P-thioadenylyl-adenosine cyclic dinucleotide], for which, in series [1], the “effect of naloxone on the antinociception of the substance” value was “had no effect”. In addition, the “IFN-β levels in the culture medium” value in series [2] is “drastic increase in IFN-α and IFN-β levels”. Further, the “open field distance and speed of movement” value in series [3] is “increased overall distance of movement and increased speed of movement”. Further, the “conditioned place preference, repeated pairing” value in series [4] is reported as “neither DMXAA nor ADU-S100 could induce place preference”. In addition, in series [5], the “conditioned place preference (ongoing pain)” value is “induced CPP in both models” and the “conditioned place preference, single pairing” value is “induced comparable CPP as clonidine”. The “osteoclast formation from BMDM” value in series [6] is reported as “could significantly inhibit osteoclast formation from BMDM from WT mice but not from STING^gt/gt or Ifnar1^−/− mice”. For the same molecule, in series [7], the “serum IFN-β levels” value is recorded as “dramatically upregulated” and the “IFN-β in bone marrow (BM) lysate” value is reported as “sharply increased”. In series [8], the “increase of serum levels of IFN-α” value was “approximately 1000 fold” and the “IFN-α in bone marrow (BM) lysate” value is listed as “sharply increased”.

For the molecule `Cc1ccc2c(=O)c3cccc(CC(=O)O)c3oc2c1C` [DMXAA, 2-(5,6-dimethyl-9-oxo-9H-xanthen-4-yl)acetic acid], the “effect of naloxone on the antinociception of the substance” value in series [1] is listed as “had no effect”. In addition, in series [2], the “IFN-β levels in the culture medium” value was “drastic increase in IFN-α and IFN-β levels”. The “open field distance and speed of movement” value in series [3] was “greater overall distance of movement and increased speed of movement”. In addition, in series [4], the “conditioned place preference, repeated pairing” value was “neither DMXAA nor ADU-S100 could induce place preference”. In series [5], the “conditioned place preference (ongoing pain)” value is “induced CPP in both models” and the “conditioned place preference, single pairing” value is reported as “induced comparable CPP as clonidine”. Further, the “osteoclast formation from BMDM” value in series [6] is listed as “could significantly inhibit osteoclast formation from BMDM from WT mice but not from STING^gt/gt or Ifnar1^−/− mice”. In series [7], the “serum IFN-β levels” value is reported as “dramatically upregulated” and the “IFN-β in bone marrow (BM) lysate” value is “sharply increased”. Further, in series [8], the “increase of serum levels of IFN-α” value is “approximately 1000 fold” and the “IFN-α in bone marrow (BM) lysate” value is reported as “sharply increased”.
